Experiment [1] deals with T1, Adenosine receptor A1 (Rattus norvegicus) (UniProt P25099).
T1 sequence (whole entry): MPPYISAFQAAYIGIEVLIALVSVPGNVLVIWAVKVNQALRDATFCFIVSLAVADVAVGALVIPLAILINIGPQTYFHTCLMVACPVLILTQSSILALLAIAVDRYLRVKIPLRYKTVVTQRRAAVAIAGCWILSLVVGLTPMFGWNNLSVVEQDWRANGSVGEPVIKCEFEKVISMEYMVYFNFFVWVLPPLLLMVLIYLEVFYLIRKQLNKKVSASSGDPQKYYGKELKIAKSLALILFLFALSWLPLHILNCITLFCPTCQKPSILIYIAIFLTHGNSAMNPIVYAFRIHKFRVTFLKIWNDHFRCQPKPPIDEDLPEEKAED
As to the kind of experiment: Displacement of [3H]CCPA from A1 receptor in rat brain cortex membranes at 1.5 uM by liquid scintillation counting method. Type of experiment: cell membranes. (In general: In a radioligand displacement assay an active substance lowers the binding of a labelled ligand.)

Experiment [2] has as its target T2, Amine oxidase [flavin-containing] B (Homo sapiens, UniProt P27338).
T2 sequence (P27338 whole entry): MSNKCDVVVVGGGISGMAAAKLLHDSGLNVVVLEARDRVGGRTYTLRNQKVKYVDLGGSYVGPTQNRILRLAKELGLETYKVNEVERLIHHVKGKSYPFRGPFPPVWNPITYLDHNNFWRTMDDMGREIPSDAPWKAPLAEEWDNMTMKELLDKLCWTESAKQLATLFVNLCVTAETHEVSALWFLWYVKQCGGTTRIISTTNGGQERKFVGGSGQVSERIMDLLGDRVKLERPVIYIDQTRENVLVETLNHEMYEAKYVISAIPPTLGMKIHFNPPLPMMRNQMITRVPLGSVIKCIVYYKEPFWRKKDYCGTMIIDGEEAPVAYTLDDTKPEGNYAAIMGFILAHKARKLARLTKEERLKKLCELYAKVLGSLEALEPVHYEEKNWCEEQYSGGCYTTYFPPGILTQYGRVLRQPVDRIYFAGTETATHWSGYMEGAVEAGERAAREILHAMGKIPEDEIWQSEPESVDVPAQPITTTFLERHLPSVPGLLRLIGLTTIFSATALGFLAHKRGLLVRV
As to the kind of experiment: Inhibition of recombinant human MAO-B expressed in baculovirus infected BTI insect cells at 10 uM preincubated for 30 mins followed by addition of p-tyramine as substrate measured over 45 mins by Amplex Red MAO assay relative to control. Particulars: 0.75 h.

The target of experiment [3] is Adenosine receptor A2a (Rattus norvegicus) (UniProt P30543). As to the kind of experiment: Displacement of [3H]MSX from A2A receptor in rat brain striatum membranes at 1 uM measured after 30 mins by liquid scintillation counting method relative to control. Type of experiment: cell membranes.
The target in a further experiment is T3, Adenosine receptor A3 (Homo sapiens, UniProt P0DMS8).
T3 sequence (P0DMS8 whole entry): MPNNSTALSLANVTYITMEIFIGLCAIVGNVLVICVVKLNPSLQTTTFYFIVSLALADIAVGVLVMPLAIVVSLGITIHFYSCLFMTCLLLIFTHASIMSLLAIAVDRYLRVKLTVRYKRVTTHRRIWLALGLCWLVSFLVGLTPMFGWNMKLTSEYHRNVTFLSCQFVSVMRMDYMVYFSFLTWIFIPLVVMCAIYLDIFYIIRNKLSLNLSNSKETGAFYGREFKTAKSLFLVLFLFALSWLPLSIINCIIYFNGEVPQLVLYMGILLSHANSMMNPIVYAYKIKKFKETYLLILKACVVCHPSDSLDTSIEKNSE
As to the kind of experiment: Displacement of [3H]PSB-11 from human A3 receptor expressed in CHO cell membrane by liquid scintillation counting method relative to control. Type of experiment: cell membranes.

Experiment [4] has as its target T4, Adenosine receptor A1 (Rattus norvegicus, UniProt P25099).
T4 sequence (P25099 whole entry): T1 sequence (whole entry)
As to the kind of experiment: Displacement of [3H]CCPA from A1 receptor in rat brain cortex membranes by liquid scintillation counting method. Type of experiment: cell membranes.

In experiment [5] the target is T2, Amine oxidase [flavin-containing] B. As to the kind of experiment: Inhibition of recombinant human MAO-B expressed in baculovirus infected BTI insect cells preincubated for 30 mins followed by addition of p-tyramine as substrate measured over 45 mins by Amplex Red MAO assay.
The target in experiment [6] is T5, Adenosine receptor A2b (Homo sapiens) (UniProt P29275).
T5 sequence (whole entry): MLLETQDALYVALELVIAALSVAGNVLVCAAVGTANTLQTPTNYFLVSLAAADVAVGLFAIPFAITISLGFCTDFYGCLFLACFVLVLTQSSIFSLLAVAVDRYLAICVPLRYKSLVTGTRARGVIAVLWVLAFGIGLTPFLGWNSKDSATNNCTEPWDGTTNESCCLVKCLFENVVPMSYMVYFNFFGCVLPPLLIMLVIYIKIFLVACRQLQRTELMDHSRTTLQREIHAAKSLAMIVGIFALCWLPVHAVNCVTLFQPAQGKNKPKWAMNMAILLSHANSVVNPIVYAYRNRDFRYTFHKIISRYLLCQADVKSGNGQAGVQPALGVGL
As to the kind of experiment: Displacement of [3H]PSB-603 from human A2B receptor expressed in CHO cell membrane at […] relative to control. The class given is cell membranes.

In experiment [7] the target is Adenosine receptor A2a (Rattus norvegicus, UniProt P30543). As to the kind of experiment: Displacement of [3H]MSX from A2A receptor in rat brain striatum membranes measured after 30 mins by liquid scintillation counting method. The class given is cell membranes.
Experiment [8] has as its target T6, Adenosine receptor A3 (Homo sapiens) (UniProt P0DMS8).
T6 sequence (whole entry): T3 sequence (P0DMS8 whole entry)
As to the kind of experiment: Displacement of [3H]PSB-11 from human A3 receptor expressed in CHO cell membrane at 1 uM by liquid scintillation counting method relative to control relative to control. The class given is cell membranes.

For experiment [9], the target named is T4, Adenosine receptor A1. As to the kind of experiment: Displacement of [3H]MSX from rat A1 receptor measured after 75 mins by liquid scintillation counting method.
Experiment [10] addresses T7, Amine oxidase [flavin-containing] A (Homo sapiens, UniProt P21397).
T7 sequence (P21397 whole entry): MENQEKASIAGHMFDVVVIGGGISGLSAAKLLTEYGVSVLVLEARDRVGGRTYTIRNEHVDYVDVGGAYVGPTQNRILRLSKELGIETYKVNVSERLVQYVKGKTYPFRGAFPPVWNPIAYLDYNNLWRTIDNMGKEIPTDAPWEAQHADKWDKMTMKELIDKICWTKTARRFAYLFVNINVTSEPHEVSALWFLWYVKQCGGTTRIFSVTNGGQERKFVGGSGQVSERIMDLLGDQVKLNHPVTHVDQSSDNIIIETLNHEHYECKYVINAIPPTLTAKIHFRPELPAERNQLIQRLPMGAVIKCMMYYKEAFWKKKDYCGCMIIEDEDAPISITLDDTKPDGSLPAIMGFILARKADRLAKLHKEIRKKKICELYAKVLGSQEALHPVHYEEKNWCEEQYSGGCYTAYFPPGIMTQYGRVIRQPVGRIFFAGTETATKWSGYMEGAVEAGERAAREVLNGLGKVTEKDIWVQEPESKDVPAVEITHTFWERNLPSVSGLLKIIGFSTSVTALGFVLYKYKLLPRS
As to the kind of experiment: Inhibition of recombinant human MAO-A expressed in baculovirus infected BTI insect cells preincubated for 30 mins followed by addition of p-tyramine as substrate measured over 45 mins by Amplex Red MAO assay.

Experiment [11] addresses T8, Adenosine receptor A1 (Homo sapiens, UniProt P30542).
T8 sequence (P30542 whole entry): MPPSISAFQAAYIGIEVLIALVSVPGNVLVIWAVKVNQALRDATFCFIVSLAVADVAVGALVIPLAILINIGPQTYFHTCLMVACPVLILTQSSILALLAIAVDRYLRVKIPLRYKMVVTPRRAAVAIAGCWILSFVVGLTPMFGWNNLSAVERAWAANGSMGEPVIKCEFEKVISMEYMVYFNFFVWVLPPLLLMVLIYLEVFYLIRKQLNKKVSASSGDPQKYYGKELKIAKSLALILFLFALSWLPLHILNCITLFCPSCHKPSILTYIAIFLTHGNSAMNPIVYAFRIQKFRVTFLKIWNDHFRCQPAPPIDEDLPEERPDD
As to the kind of experiment: Displacement of [3H]CCPA from human A1 receptor expressed in CHO cell membrane by liquid scintillation counting method. The class given is cell membranes.

Experiment [12] addresses T5, Adenosine receptor A2b (Homo sapiens). As to the kind of experiment: Displacement of [3H]PSB-603 from human A2B receptor expressed in CHO cell membrane measured after 75 mins by liquid scintillation counting method relative to control. The class given is cell membranes.
The next experiment concerns the target T9, Adenosine receptor A2b (Homo sapiens, UniProt P29275).
T9 sequence (P29275 whole entry): T5 sequence (whole entry)
As to the kind of experiment: Displacement of [3H]PSB-603 from human A2B receptor expressed in CHO cell membrane measured after 75 mins by liquid scintillation counting method. The class given is cell membranes.

The target in experiment [13] is Adenosine receptor A2a (Homo sapiens, UniProt P29274). As to the kind of experiment: Displacement of [3H]MSX from human A2A receptor by liquid scintillation counting method.
Experiment [14] deals with T4, Adenosine receptor A1. As to the kind of experiment: Displacement of [3H]CCPA from rat A1 receptor by liquid scintillation counting method.
In experiment [15] the target is T7, Amine oxidase [flavin-containing] A. As to the kind of experiment: Inhibition of recombinant human MAO-A expressed in baculovirus infected BTI insect cells at 10 uM preincubated for 30 mins followed by addition of p-tyramine as substrate measured over 45 mins by Amplex Red MAO assay relative to control. The conditions noted are these: 0.75 h.
For experiment [16], the target named is T6, Adenosine receptor A3 (Homo sapiens). As to the kind of experiment: Displacement of [3H]PSB-11 from human A3 receptor expressed in CHO cell membrane at 10 uM by liquid scintillation counting method relative to control relative to control. The class given is cell membranes.

Bounds are passed on as bounds.

Adenosine receptor A2a (Homo sapiens, UniProt P29274), sequence (P29274 whole entry): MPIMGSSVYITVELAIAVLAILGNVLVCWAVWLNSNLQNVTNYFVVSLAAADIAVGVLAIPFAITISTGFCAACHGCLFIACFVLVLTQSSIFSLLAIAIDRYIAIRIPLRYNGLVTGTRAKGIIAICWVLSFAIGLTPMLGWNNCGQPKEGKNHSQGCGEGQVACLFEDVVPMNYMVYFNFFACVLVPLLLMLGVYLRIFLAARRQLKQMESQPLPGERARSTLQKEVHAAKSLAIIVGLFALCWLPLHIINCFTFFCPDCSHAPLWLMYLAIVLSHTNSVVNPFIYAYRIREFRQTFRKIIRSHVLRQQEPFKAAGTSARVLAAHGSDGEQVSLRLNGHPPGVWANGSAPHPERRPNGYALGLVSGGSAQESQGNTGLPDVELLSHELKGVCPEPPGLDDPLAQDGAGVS
Adenosine receptor A2a (Rattus norvegicus, UniProt P30543), sequence (P30543 whole entry): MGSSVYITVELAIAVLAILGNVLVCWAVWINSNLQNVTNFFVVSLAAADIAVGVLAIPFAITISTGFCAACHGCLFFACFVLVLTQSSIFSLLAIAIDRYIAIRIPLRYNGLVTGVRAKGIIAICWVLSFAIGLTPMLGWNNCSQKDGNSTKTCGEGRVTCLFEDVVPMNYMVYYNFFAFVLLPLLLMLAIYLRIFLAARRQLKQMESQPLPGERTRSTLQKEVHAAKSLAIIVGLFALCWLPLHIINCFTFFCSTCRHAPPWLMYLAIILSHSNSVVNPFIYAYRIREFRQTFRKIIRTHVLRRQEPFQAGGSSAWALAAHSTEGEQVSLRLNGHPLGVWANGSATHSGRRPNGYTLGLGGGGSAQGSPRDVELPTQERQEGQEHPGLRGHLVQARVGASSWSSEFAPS
Adenosine receptor A2a (Rattus norvegicus), sequence (P30543 whole entry): as above

One may read the inhibition as the relative decrease from the control value, in per cent. One may read the Ki as the equilibrium dissociation constant of an inhibitor or competing ligand from its target. A word on the IC50: it is the concentration at which inhibition is half-maximal. On to `Cn1c(=O)c2c(nc3n2CCN(Cc2nocc2-c2ccccc2)C3)n(C)c1=O`, for which the Activity in [1] is 21%; in [3], 5%. For the same compound, the inhibition at 10 µM in [2] stood at 39%. Moreover, the Ki at Adenosine receptor A3 was 8720 nM; at Adenosine receptor A1 [4] it was over 1500 nM; at Adenosine receptor A2a [7], over 1000 nM. For the same compound, the IC50 in experiment [5] was over 10000 nM. The same compound gave an inhibition in [6] of 18%.
As for `Cn1c(=O)c2c(nc3n2CCN(Cc2ccc(Cl)c(Cl)c2)C3)n(C)c1=O`, the Activity in [8] worked out at 13%; in [12] it was 15%. For the same compound, the Ki at Adenosine receptor A1 [9] was 322 nM; at Adenosine receptor A3, over 1000 nM; at Adenosine receptor A1 [11], 791 nM; at Adenosine receptor A2b it was over 1000 nM; on Adenosine receptor A2a [13], 1510 nM; at Adenosine receptor A1 [14] it was 351 nM. Further, the IC50 in experiment [10] was over 10000 nM; in experiment [5], 197 nM. Also, in experiment [15], the inhibition at 10 µM is 5%.
On to `Cn1c(=O)c2c(nc3n2CCN(Cc2ccccc2)C3)n(C)c1=O`, for which the inhibition at 10 µM in [2] stood at 36%. For the same compound, the Ki on Adenosine receptor A1 [9] was 598 nM; at Adenosine receptor A3, over 10000 nM; at Adenosine receptor A1 [11], 265 nM; at Adenosine receptor A2b, over 1000 nM; on Adenosine receptor A2a [13], 1060 nM; at Adenosine receptor A1 [14], 79.3 nM. The Activity in [16] was found to be 21%; in [12], 15%. Besides, in [5], the IC50 is over 10000 nM.

The record behind these values is ChEMBL document CHEMBL4428125, “8-Substituted 1,3-dimethyltetrahydropyrazino[2,1-f]purinediones: Water-soluble adenosine receptor antagonists and monoamine oxidase B inhibitors” (Bioorg Med Chem, 2016).
